The text below walks through data of patent US8389569B2, “Polyspirane compounds, application thereof in the treatment of malaria or toxoplasmosis and method for preparing same” (Universite Joseph Fourier, priority 2007, dated 2013).

In experiment [1] the test system is Plasmodium falciparum 3D7 strain (chloroquine-sensitive). As to the kind of experiment: Antimalarial activity in vitro, [3H]-hypoxanthine isotopic microtest. Format: cell-based. As to conditions: asynchronous culture of infected erythrocytes, 48 hours + 18 hours [3H]-hypoxanthine, read-out: Plasmodium Proliferation test 3D7 strain (IC 50). As for the experimental part: Before experimentation, parasites of the 3D7 strain (chloroquine-sensitive, […] de Waal H. A. and F. […] ATCC no.: MRA-102) of Plasmodium falciparum are maintained in culture according to the Trager and Jansen method (Trager and Jansen, 1976). The antimalarial activity is measured in vitro on an asynchronous culture of erythrocytes infected with Plasmodium falciparum according to a modified method ([…] et al., 2003) based on the Desjardins isotopic microtest (Desjardins et al., 1979). […] After incubation for 48 hours, 0.5 μCi [^3H]-hypoxanthine (a precursor necessary for the synthesis of the radiolabelled nucleic acids of the parasite) are added to each microtitre plate well. After incubation for 18 hours, the hypoxanthine incorporation reaction is stopped and the cells lysed by direct freezing at -80° C. After thawing, the parasitic macromolecules, including the radiolabelled nucleic acids, are collected on a filter by means of a cell collector. A scintillation cocktail is added to the filter and the incorporated radioactivity is then measured with a scintillation counter. The radioactive background noise is measured starting from non-infected erythrocytes and subtracted from each filter measurement. The viability of the parasites treated with the compound to be tested is measured by their ability to synthesize nucleic acids from a radiolabelled precursor ([H^3]-hypoxanthine) in comparison with the control parasites cultured in the absence of the compound and is expressed as a percentage of the control. The measurements are analyzed by means of the Graphpad Prism software and the IC50 (concentration of compound able to inhibit 50% of the parasites' growth in vitro) is determined graphically. The results obtained appear in the form of IC50 in the table and are the result of two experiments carried out independently (different parasite cultures, different dilutions) in duplicate.

The test system of experiment [2] is Toxoplasma (RH-β1 strain) in HFF (Human Foreskin Fibroblast) cells. The experiment is described as follows: Antitoxoplasmic activity in vitro, colorimetric microtitre proliferation test. Format: cell-based, Toxoplasma gondii. As for the experimental part:
The test implemented here is a colorimetric microtitre test. A monolayer of HFF (Human Foreskin Fibroblast) cells is infected, in a synchronous manner, by the parasite (10^4 parasites per well, RH-β1 strain). After washing, increasing doses (from 50 nM to 100 μM) of compound are added, except to the control well (addition, or no addition, of DMSO). After incubation for 48 hours, the β-galactosidase activity is measured by the addition of a substrate of the enzyme, chlorophenol red β-D-galactopyranoside (CPRG). The plates are again incubated (from 30 min to 16 h at 37° C.) before being read at 570 and 630 nm.

The subject of experiment [3] is synchronized Plasmodium falciparum parasites (ring, trophozoite, schizont). The experiment is described as follows: Minimum contact time necessary for cytotoxicity as a function of the parasitic stage (time-course). The experiment is classed as cell-based. The following applies: 20×IC50, contact 30 min to 9 h; for activity on the different blood stages of the parasite (FIG. 11): viability as % of control; for speed and reversibility of the action (FIG. 11): washed, viability read at next cycle. As for the experimental part: A culture of Plasmodium falciparum parasites is synchronized with VarioMACS (which retains the mature forms, which synthesize a pigment: haemozoin). After the culture has been passed through a VarioMACS column for 6 h, the synchronization range of the parasites is restricted by a second synchronization with 5% sorbitol (which retains only the young, so-called ring stage) at time t0, i.e. a short time after the invasion of healthy erythrocytes by the merozoites originating from the schizonts obtained by synchronization with the VarioMACS. The parasites are then brought into contact during each stage (ring, then trophozoite then schizont) with a fixed concentration of compound (20×IC50 previously defined by the above protocol) and for variable periods of time (30 min, 1 h 30 min, 3 h, 5 h, 7 h and 9 h in the case of parasites treated in the ring stage; 30 min, 1 h 30 min, 3 h, 5 h and 7 h in the case of parasites treated in the trophozoite and schizont stage). At the end of the defined period of contact, the erythrocyte mat is washed twice in complete medium. At t0+44h, (i.e. at the start of the subsequent parasitic life cycle), the erythrocyte mats are resuspended and redistributed into 96-well plates (in sextuplicate), 0.5 μCi of tritiated [^3H]-hypoxanthine is then added to the culture medium. From then on, the treatment is the same as that of the abovementioned experiment with one difference: the results obtained appear in the form of a graph which represents the viability of the parasites expressed as a control percentage as a function of the time for which the culture is in contact with the compound to be tested.

Setting [4] is: HFF monolayer infected with RH-β1 strain, 48 hours incubation, β-galactosidase activity (CPRG), read-out: Toxoplasma Proliferation test (IC 50).
Where [5] appears, read: Plasmodium falciparum, 3D7, Erythrocyte, 66 h.
Where [6] appears, read: Toxoplasma, Fibroblast, 48 h, read-out: Toxoplasma Proliferation test (IC 50), HFF monolayer infected with RH-β1 strain, 48 hours incubation, β-galactosidase activity (CPRG).

Like-named read-outs stand apart in the source and are kept apart here.

Consider 6-epi-aculeatin D [reference compound], for which the results for the IC50 in experiment [1] and in experiment [2] (setting [4]) were 451 nM and 377 nM, respectively.
As for `CCCOC(=O)C[C@@H]1C[C@@H](O)C[C@]2(CCC3(C=CC(=O)C=C3)O2)O1` (mixture of isomers) [10a, propyl (2S,4R,6R)- and (2R,4S,6S)-(4-Hydroxy-1′-oxo-1,7-dioxadispiro[5.1.5.2]pentadeca-9,12-dien-2-yl)-acetate], the IC50 in experiment [1] was 1840 nM; in experiment [2] (setting [4]), 500 nM.
With `CCCCCCC(=O)OC1CC2(CC[C@]3(C=CC(=O)C=C3)O2)O[C@@]2(CC[C@]3(C=CC(=O)C=C3)O2)C1` (mixture of isomers) [16a, (8R,10S,21S)- and (8S,10R,21R)-Heptanoate of 7,9,11-trioxatetraspiro[5.1.1.1.5^12.2^10.3^8.2^6]tetracosa-1,4,13,16-dien-3,15-on-21-yl], the IC50 in experiment [1] (setting [5]) stood at 343 nM.
As to `CCCCCCCCCCCCCC(=O)OC1CC2(CC[C@]3(C=CC(=O)C=C3)O2)O[C@@]2(CC[C@]3(C=CC(=O)C=C3)O2)C1` (mixture of isomers) [16c, (8R,10S,21S)- and (8S,10R,21R)-Tetradecanoate of 7,9,11-trioxatetraspiro[5.1.1.1.5^12.2^10.3^8.2^6]tetracosa-1,4,13,16-dien-3,15-on-21-yl], the “activity on the different blood stages of the parasite (FIG. 11)” value in experiment [3] was “active on the different blood stages (rings, trophozoites and schizonts)”. For the same molecule, the “speed and reversibility of the action (FIG. 11)” value in experiment [3] is “extremely rapid and is not reversible”. Moreover, the IC50 stood at 81.5 nM in experiment [1] (setting [5]) and 346 nM in experiment [2] (setting [6]).
Turning to `CCCCCCCCCCOC(=O)C[C@@H]1C[C@@H](O)C[C@]2(CCC3(C=CC(=O)C=C3)O2)O1` (racemic) [10b, decyl (2S,4R,6R)- and (2R,4S,6S)-(4-Hydroxy-11-oxo-1,7-dioxadispiro[5.1.5.2]pentadeca-9,12-dien-2-yl)-acetate], the IC50 in experiment [1] (setting [5]) was determined as 654 nM; in experiment [2] (setting [6]), 341 nM.
Turning to `CCCCCCCCCCCCCCCCCCOC(=O)C[C@@H]1C[C@@H](O)C[C@]2(CCC3(C=CC(=O)C=C3)O2)O1` (racemic) [10c, octadecyl (2S,4R,6R)- and (2R,4S,6S)-(4-Hydroxy-11-oxo-1,7-dioxadispiro[5.1.5.2]pentadeca-9,12-dien-2-yl)-acetate], the results for the IC50 in experiment [1] (setting [5]) and in experiment [2] (setting [6]) were 770 nM and 2400 nM, respectively.
As for `CCCCCCN(CCCCCC)C(=O)C[C@@H]1C[C@@H](O)C[C@]2(CCC3(C=CC(=O)C=C3)O2)O1` (racemic) [10e, (2S,4R,6R)- and (2R,4S,6S)—N,N-dihexyl-2-(4-hydroxy-11-oxo-1,7-dioxadispiro[5.1.5.2]pentadeca-9,12-dien-2-yl)-acetamide], the IC50 in experiment [1] (setting [5]) came out at 899 nM.
For the molecule `CCCCCCCCCCOC(=O)CC1CC(O)C[C@@]2(CCC3(C=CC(=O)C=C3)O2)O1` (mixture of isomers) [11b, (2S,4R,6S)- and decyl (2R,4S,6R)-(4-Hydroxy-11-oxo-1,7-dioxadispiro[5.1.5.2]pentadeca-9,12-dien-2-yl)-acetate], the IC50 turned out to be 1360 nM in experiment [1] (setting [5]) and 1640 nM in experiment [2] (setting [6]).
On the same counts, the results for `CCCCCCCCCCCCCCCCCCOC(=O)C[C@@H]1C[C@H](O)C[C@]2(CCC3(C=CC(=O)C=C3)O2)O1` (racemic) [12c, octadecyl (2S,4S,6R)- and (2R,4R,6S)-(4-Hydroxy-11-oxo-1,7-dioxadispiro[5.1.5.2]pentadeca-9,12-dien-2-yl)-acetate] are 1030 nM and 3540 nM.
`CCCCCCCCCCCCCCCCCCOC(=O)C[C@@H]1C[C@H](O)C[C@@]2(CCC3(C=CC(=O)C=C3)O2)O1` (racemic) [13c, octadecyl (2S,4S,6S)- and (2R,4R,6R)-(4-Hydroxy-11-oxo-1,7-dioxadispiro[5.1.5.2]pentadeca-9,12-dien-2-yl)-acetate]: the IC50 in experiment [1] (setting [5]) came to 1130 nM; in experiment [2] (setting [6]) it was 3520 nM.
In the case of `O=C1C=CC2(C=C1)CC[C@]1(CC(O)C[C@@]3(CCC4(C=CC(=O)C=C4)O3)O1)O2` (stereo partly drawn) [4a, (8R,10S,21S)- and (8S,10R,21R)-21-Hydroxy-7,9,11-trioxatetraspiro[5.1.1.1.5^12.2^10.3^8.2^6]tetracosa-1,4,13,16-dien-3,15-one], the values for the IC50 in experiment [1] and in experiment [2] (setting [4]) were 414 nM and 173 nM, respectively.
In the case of `O=C1C=C[C@]2(C=C1)CCC1(CC(O)C[C@]3(CC[C@@]4(C=CC(=O)C=C4)O3)O1)O2` (stereo partly drawn) [4b, (8R,10R,21S)-21-Hydroxy-7,9,11-trioxatetraspiro[5.1.1.1.5^12.2^10.3^8.2^6]tetracosa-1,4,13,16-dien-3,15-one], the IC50 in experiment [1] (setting [5]) was found to be 584 nM; in experiment [2] (setting [6]), 1500 nM.
With `CCCCCCC(=O)OC1CC2(CC[C@]3(C=CC(=O)C=C3)O2)O[C@@]2(CC[C@]3(C=CC(=O)C=C3)O2)C1` (stereo partly drawn) [16b, (8R,10R,21S)-Heptanoate of 7,9,11-trioxatetraspiro[5.1.1.1.5^12.2^10.3^8.2^6]tetracosa-1,4,13,16-dien-3,15-on-21-yl], the IC50 in experiment [1] amounted to 331 nM.
In the case of `CCCCCCCCCCCCCC(=O)OC1CC2(CC[C@]3(C=CC(=O)C=C3)O2)O[C@@]2(CC[C@]3(C=CC(=O)C=C3)O2)C1` (stereo partly drawn) [16d, (8R,10R,21S)-Tetradecanoate of 7,9,11-trioxatetraspiro[5.1.1.1.5^12.2^10.3^8.2^6]tetracosa-1,4,13,16-dien-3,15-on-21-yl], in experiment [3], the “activity on the different blood stages of the parasite (FIG. 11)” value was “active on the different blood stages (rings, trophozoites and schizonts)”; the “speed and reversibility of the action (FIG. 11)” value is “extremely rapid and is not reversible”. For the same molecule, the IC50 in experiment [1] turned out to be 91.7 nM. In experiment [2] (read-out: Toxoplasma Proliferation test (IC 50), HFF monolayer infected with RH-β1 strain, 48 hours incubation, β-galactosidase activity (CPRG)), the IC50 stood at 636 nM.
With `CCCCCCCCCCCCCC(=O)CC(=O)OC1C[C@]2(CCC3(C=CC(=O)C=C3)O2)O[C@]2(CCC3(C=CC(=O)C=C3)O2)C1` (stereo partly drawn) [16e, (8R,10S,21S)- and (8S,10R,21R)-3-Oxohexadecanoate of 7,9,11-trioxatetraspiro[5.1.1.1.5^12.2^10.3^8.2^6]tetracosa-1,4,13,16-dien-3,15-on-21-yl], in experiment [1], the IC50 is 122 nM.
In the case of `CCCCCCCCCCCCC[C@@H]1C[C@@H](O)C[C@]2(CCC3(C=CC(=O)C=C3)O2)O1` [Natural aculeatin A, aculeatin A, reference compound], the results for the IC50 in experiment [1] and in experiment [2] (setting [4]) were 288 nM and 309 nM, respectively.
On the same counts, the results for `CCCCCCCCCCCCC[C@@H]1C[C@H](O)C[C@]2(CCC3(C=CC(=O)C=C3)O2)O1` [Natural aculeatin B, aculeatin B, reference compound] are 454 nM and 365 nM.
